Assay results reported in patent publication US10737995B2, “Nuclear receptor modulators and their use for the treatment and prevention of cancer” (The United States of America, as represented by the …, priority 2011, dated 2020).

Assays:
[1] = tested on: PSA mRNA expression in LNCaP cells; experiment: PSA mRNA expression in LNCaP cells, real time RT-PCR; type: cell-based, human; settings: for block of R1881-induced PSA mRNA induction: in the presence of R1881, dose-dependent manner (FIG. 6); for inhibition of PSA mRNA: LNCaP cells (FIG. 12); for inhibition of PSA mRNA expression: 500 nM (FIG. 9); for agonistic effects on PSA and TMPRSS2 mRNA levels: dose dependent study (FIG. 9)
Description: FIG. 3 is a graph showing the inhibition of PSA mRNA expression. […] As shown in the graph, a hit was identified that inhibited over 90% PSA mRNA expression in LNCaP cells at 10 μM after 20 hours of treatment.
(§1) LNCaP cells were incubated for 3 days in phenol red-free RPMI 1640 supplemented with 10% charcoal-stripped FBS and 1% antimycotic-antibiotic solution, and then cells were treated for 20 hours. The concentration of R1881 was 0.5 nM, and that of the corresponding compounds was 10, 5 or 1 μM, respectively. Compound 49 inhibited PSA mRNA expression 80% in the presence of R1881 at 5 μM. This activity was similar to bicalutamide.
(§2) For PSA, TMPRSS2, and UBE2C mRNA determination, LNCaP cells or 22Rv1 cells, were cultured and treated with the corresponding compounds for 20 hours in the presence or absence of the synthetic androgen R1881. Total RNA was isolated from cultured cells using the RNeasy RNA Isolation Kit (Qiagen). The RNAs were reverse transcribed immediately after RNA extraction with the High Capacity cDNA Reverse Transcription Kit (Applied Biosystems), using random primers included in the kit, according to the manufacturer's instructions. The cDNA products were stored at −20° C. until the PCR analysis was performed. Real-time PCR primers were designed using Primer Express Applications (Applied Biosystems). The primer sequences for real-time PCR were as follows:
(§3) The mRNA level and total protein in cells were measured after treatment with either control, bicalutamide (0.08 μM to 1.25 μM), or MDV3100 (an antiandrogen) and either about 2.5 μM or about 1.0 μM of Compounds 1-117 respectively. It was known that the expression of PSA mRNA in LNCaP cells is driven by an AR mediated pathway. While PSA is androgen-dependent AR-target gene, UBE2C is androgen-independent AR-target gene. The PSA, TMPRSS2 and UBE2C mRNA levels were normalized by the rRNA level.

[2] = tested on: TMPRSS2 mRNA expression in LNCaP cells; experiment: TMPRSS2 mRNA expression in LNCaP cells, real time RT-PCR; type: cell-based, human; settings: for block of R1881-induced TMPRSS2 mRNA induction: in the presence of R1881, dose-dependent manner (FIG. 6); for inhibition of TMPRSS2 mRNA: LNCaP cells (FIG. 12)
Description: as §1, §2, §3

[3] = tested on: R1881-induced AR translocation to the nucleus; experiment: AR translocation, immunocytochemistry in LNCaP cells; type: cell-based, human; settings: 10 μM for three hours, then 1 nM R1881 for three hours (FIG. 7)
Description: FIG. 7 is a graph showing the results of an AR translocation experiment. LNCaP cells were incubated on cover slips in phenol red free RPMI 1640 with 10% charcoal stripped FBS and 1% antimycotic-antibiotic solution for three days. Cells were treated with DMSO, bicalutamide (10 μM) or Compound 11 for three hours, followed by treatment with 1 nM R1881 for three hours. Cells were washed with PBS, fixed with 0.4% paraformaldehyde for 30 min at 37° C., washed with PBS, permeabilized with 0.4% Triton X-100 for 10 min, and then stained with anti-AR antibody (1:100 dilution, Santa Cruz Biotechnology, Santa Cruz, Calif.) for 1 hour at room temperature. After washing with PBS, cells were stained with FITC-labeled goat anti-rabbit IgG (1:200 dilution, BD Biosciences, San Jose, Calif.) for 1 hour at room temperature. After washing with PBS, cells were incubated for 10 min with Hoechst 33342 for nuclear staining, washed, and the dried cover slips were mounted on glass slides with SlowFade Gold anti-fade reagent (Invitrogen). Fluorescence images were obtained using a Leica® DM IRB fluorescence microscope, and nuclear-to-cytoplasmic AR ratios were measured using OpenLab® (Perkin Elmer, Waltham, Mass.) software. […]

[4] = tested on: UBE2C mRNA expression in LNCaP cells; experiment: UBE2C mRNA expression in LNCaP cells, real time RT-PCR; type: cell-based, human; settings: LNCaP cells (FIG. 12)
Description: as §2, §3

[5] = tested on: PSA mRNA expression in 22Rv1 cells; experiment: PSA mRNA expression in 22Rv1 cells, real time RT-PCR; type: cell-based, human
Description: as §2
[…] It was known that the expression of PSA mRNA in LNCaP cells is driven by an AR mediated pathway. While PSA is androgen-dependent AR-target gene, UBE2C is androgen-independent AR-target gene. The PSA, TMPRSS2 and UBE2C mRNA levels were normalized by the rRNA level.

[6] = tested on: UBE2C mRNA expression in 22Rv1 cells; experiment: UBE2C mRNA expression in 22Rv1 cells, real time RT-PCR; type: cell-based, human; settings: 22Rv1 cells (FIG. 13)
Description: as §2, §3

[7] = tested on: LNCaP cells; experiment: LNCaP cell growth, Trypan blue viable cell count; type: cell-based; settings: Homo sapiens, 72 h, 3 days incubation, Trypan blue viable cell number, read-out: IC50 of LNCaP cell growth inhibition
Description: LNCaP cells were incubated with Compound 49 for 3 days. Viable cell number was determined by Trypan blue staining and counting in a hemocytometer. The IC50 value of Compound 49 was 3 μM.

[8] = tested on: AR in LNCaP cells; experiment: AR Western blot, LNCaP cells treated 6 hours; type: cell-based, human; settings: 10 μM (data not shown)
Description: LNCaP cells were maintained as above. At 50% confluence, cells were washed several times in serum-free RPMI-1640 medium, and re-cultured for 72 hours in RPMI-1640 medium containing 10% charcoal-stripped fetal bovine serum. Cells were treated with R1881 (0.5 nM), with, or without 10 μM, 5 μM or 1 μM of Compounds 1-117, and then cells were cultured for 20 hours. Nuclear and cytoplasmic protein fractionation was performed using NE-PER Nuclear and Cytoplasmic Extraction Reagents Kit (Thermo Scientific Pierce Protein Research Products) according to the manufacturer's instructions. Quantification of AR in nucleus and cytosol was performed by Western blotting with an AR-specific antibody following polyacrylamide gel electrophoresis.
LNCaP cells were also tested after treatment for only 6 hours. Compounds 49, 80 and 86, as well as KU135 (a C-terminal Hsp90 inhibitor) and 17-AAG (a known AR degradation inducer), were tested at 2.5, 5, and 10 μM as well as control (DMSO vehicle). […] LAPC-4 cells (a human prostate cancer cell line with wt AR) were tested against Compounds 80, 86, KU-32 (another C-terminal Hsp90 inhibitor) and 17-AAG.

[9] = tested on: TMPRSS2 mRNA expression in 22Rv1 cells; experiment: TMPRSS2 mRNA expression in 22Rv1 cells, real time RT-PCR; type: cell-based, human; settings: 22Rv1 cells (FIG. 13)
Description: as §2, §3

[10] = tested on: genome-wide transcriptional response; experiment: Microarray analysis of genome-wide transcriptional response; type: cell-based, human
Description: This example illustrates that Compound 86 has an impact on AR-driven gene expression (PSA) and androgen-independent AR-driven gene expression (e.g., UBE2C). A microarray analysis was performed on the genome-wide transcriptional response to Compound 86 compared with the antiandrogens bicalutamide and MDV3100, and solvent DMSO. Each compound was tested at two concentrations: 1 and 5 μM. The data were subjected to bioinformatics analysis using the Partek Genomics Software. […] FIG. 19B depicts a different view in 3-dimensional space again reinforcing the differences between Compound 86 versus DMSO, bicalutamide and MDV3100. This visual assessment is consistent with the data showing that Compound 86 and not DMSO, bicalutamide, or MDV3100, can inhibit the androgen-independent, androgen receptor-dependent transcriptional program of castrate-resistant prostate cancer.

[11] = LNCaP cells, synthetic androgen R1881 (FIG. 6)

COc1ccc(C(=O)/C=C/c2ccc([N+](=O)[O-])cc2)c(OC)c1OC [Compound 11]
block of R1881-induced PSA mRNA induction [1]: blocked
block of R1881-induced TMPRSS2 mRNA induction [2]: blocked
inhibition of R1881-induced AR translocation to the nucleus (nuclear-to-cytoplasmic AR ratio) [3]: markedly more active than bicalutamide

C[C@]1(O)CC[C@H]2[C@@H]3CCC4=CC(=O)CCC4=C3C=C[C@@]21C [Compound R1881, methyltrienolone, reference compound]
PSA mRNA induction compared with the DMSO control [1, 11]: about 500 fold
TMPRSS2 mRNA induction compared with the DMSO control [2, 11]: ~30 fold

COc1ccccc1C(=O)/C=C/c1ccccc1[N+](=O)[O-] [Compound 49]
inhibition of PSA mRNA [1]: inhibited
inhibition of PSA mRNA expression in the presence of R1881 ([1]; LNCaP cells, 0.5 nM R1881, 5 μM, 20 hours (FIG. 10)): 80%
inhibition of PSA mRNA expression ([1]; LNCaP cells): 50%
agonistic effects on PSA and TMPRSS2 mRNA levels ([1]; LNCaP cells): No agonistic effects
inhibition of TMPRSS2 mRNA [2]: inhibited
inhibition of UBE2C mRNA [4]: not effective
inhibition of PSA mRNA expression compared to control ([5]; 22Rv1 cells (FIG. 13)): 80%
inhibition of UBE2C mRNA expression [6]: completely failed to inhibit
IC50 [7]: 3000 nM

COc1cc(C(=O)/C=C/c2cccc([N+](=O)[O-])c2)cc(OC)c1OC [Compound 80]
inhibition in AR Western blot [8]: showed inhibition

CC(O)(CS(=O)(=O)c1ccc(F)cc1)C(=O)Nc1ccc(C#N)c(C(F)(F)F)c1 (stereo not drawn) [bicalutamide, reference compound]
IC50 ([1]; Homo sapiens, LNCaP cells, dose-dependent study (FIG. 4), read-out: IC50 of PSA mRNA inhibition): 300 nM
inhibition of PSA mRNA expression ([5]; 22Rv1 cells (FIG. 13)): No inhibition
inhibition of TMPRSS2 mRNA expression [9]: No inhibition
inhibition of UBE2C mRNA expression [6]: No inhibition

CNC(=O)c1ccc(N2C(=S)N(c3ccc(C#N)c(C(F)(F)F)c3)C(=O)C2(C)C)cc1F [MDV3100, 4-(3-(4-cyano-3-(trifluoromethyl)phenyl)-5,5-dimethyl-4-oxo-2-thioxoimidazolidin-1-yl)-2-fluoro-N-methylbenzamide]
sensitivity of PSA mRNA expression ([5]; 22Rv1 cells, 20 hours of exposure, 10 μM (FIG. 14)): insensitive
inhibition of the androgen-independent, androgen receptor-dependent transcriptional program of castrate-resistant prostate cancer [10]: not

COc1ccc(C(=O)/C=C/c2ccc(C#N)cc2)cc1OC [Compound 103]
inhibition of PSA mRNA [1]: inhibited
inhibition of PSA mRNA expression ([1]; LNCaP cells): 50%
agonistic effects on PSA and TMPRSS2 mRNA levels ([1]; LNCaP cells): No agonistic effects
inhibition of TMPRSS2 mRNA [2]: inhibited
inhibition of UBE2C mRNA [4]: not effective

COc1ccc(C(=O)/C=C/c2cccc([N+](=O)[O-])c2)c(OC)c1OC [Compound 12]
agonistic effect on AR target gene expression ([1]; 1 μM, PSA and TMPRSS2, in the presence of R1881 (FIG. 6)): weak agonistic effect
activity in blocking R1881-induced AR target gene expression relative to Compound 11 ([1]; high concentrations, PSA and TMPRSS2, in the presence of R1881): more active
block of R1881-induced PSA mRNA induction [1]: blocked
block of R1881-induced TMPRSS2 mRNA induction [2]: blocked
